Like-named read-outs stand apart in the source and are kept apart here.
Assays:
F508del in NIH 3T3 cells = molecular target: T1, F508del in NIH 3T3 cells (Homo sapiens, UniProt P13569, DEL508-508); test: 3T3 assay: membrane potential optical assay for F508del correction; assay type: cell-based, mouse; details: for EC50 / 3T3 Max Activity (%): F508del NIH 3T3 cells; for EC50: compound incubation 18-24 hours at 37° C., forskolin activation; for Emax: NIH3T3, F508del NIH 3T3 cells, read-out: 3T3 Max Activity (%); for Emax / 3T3 Max Activity (%): efficacy compared to lumacaftor in combination with acutely added 300 nM Ivacaftor
T1 construct: expressed in transfected cells
In short: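 NIH3T3 mouse fibroblasts stably expressing F508del incubated with corrector compounds at a range of concentrations for 16-24 h at 37 °C, then loaded with voltage-sensing redistribution dye. Single addition of forskolin with Cl− gradient (chloride-free gluconate bath vs. NaCl bath, pH 7.4); membrane potential change read by fluorescence on FLIPR.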

[1] = molecular target: CFTR-mediated chloride transport in human intestinal epithelial enteroid cells (Homo sapiens, UniProt P13569); test: Membrane potential dye, Enteroid Assay A; assay type: cell-based; details: for Ent. A Max Activity (%): % of chloride transport of triple combination control (3 μM N-[(6-amino-2-pyridyl)sulfonyl]-6-(3-fluoro-5-isobutoxy-phenyl)-2-[(4S)-2,2,4-trimethylpyrrolidin-1-yl]pyridine-3-carboxamide, 3 μM tezacaftor, 300 nM acute ivacaftor); for EC50: enteroid cells, 18-24 hours incubation, acute 10 μM forskolin and 300 nM ivacaftor, read-out: Ent. A EC50
In short: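 Enteroids seeded at 5000 cells/well were exposed to test compound in IEMM for 18-24 h at 37 °C, then loaded with methyl oxonol membrane potential dye. Chloride transport was triggered in chloride-free buffer with 10 μM forskolin, 100 μM IBMX and 300 nM Compound III, read by fluorescence for 15 min and expressed as % of a triple-combination control.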

Sequence of CFTR-mediated chloride transport in human intestinal epithelial enteroid cells (P13569 with tags, fused parts or gaps DEL508-508): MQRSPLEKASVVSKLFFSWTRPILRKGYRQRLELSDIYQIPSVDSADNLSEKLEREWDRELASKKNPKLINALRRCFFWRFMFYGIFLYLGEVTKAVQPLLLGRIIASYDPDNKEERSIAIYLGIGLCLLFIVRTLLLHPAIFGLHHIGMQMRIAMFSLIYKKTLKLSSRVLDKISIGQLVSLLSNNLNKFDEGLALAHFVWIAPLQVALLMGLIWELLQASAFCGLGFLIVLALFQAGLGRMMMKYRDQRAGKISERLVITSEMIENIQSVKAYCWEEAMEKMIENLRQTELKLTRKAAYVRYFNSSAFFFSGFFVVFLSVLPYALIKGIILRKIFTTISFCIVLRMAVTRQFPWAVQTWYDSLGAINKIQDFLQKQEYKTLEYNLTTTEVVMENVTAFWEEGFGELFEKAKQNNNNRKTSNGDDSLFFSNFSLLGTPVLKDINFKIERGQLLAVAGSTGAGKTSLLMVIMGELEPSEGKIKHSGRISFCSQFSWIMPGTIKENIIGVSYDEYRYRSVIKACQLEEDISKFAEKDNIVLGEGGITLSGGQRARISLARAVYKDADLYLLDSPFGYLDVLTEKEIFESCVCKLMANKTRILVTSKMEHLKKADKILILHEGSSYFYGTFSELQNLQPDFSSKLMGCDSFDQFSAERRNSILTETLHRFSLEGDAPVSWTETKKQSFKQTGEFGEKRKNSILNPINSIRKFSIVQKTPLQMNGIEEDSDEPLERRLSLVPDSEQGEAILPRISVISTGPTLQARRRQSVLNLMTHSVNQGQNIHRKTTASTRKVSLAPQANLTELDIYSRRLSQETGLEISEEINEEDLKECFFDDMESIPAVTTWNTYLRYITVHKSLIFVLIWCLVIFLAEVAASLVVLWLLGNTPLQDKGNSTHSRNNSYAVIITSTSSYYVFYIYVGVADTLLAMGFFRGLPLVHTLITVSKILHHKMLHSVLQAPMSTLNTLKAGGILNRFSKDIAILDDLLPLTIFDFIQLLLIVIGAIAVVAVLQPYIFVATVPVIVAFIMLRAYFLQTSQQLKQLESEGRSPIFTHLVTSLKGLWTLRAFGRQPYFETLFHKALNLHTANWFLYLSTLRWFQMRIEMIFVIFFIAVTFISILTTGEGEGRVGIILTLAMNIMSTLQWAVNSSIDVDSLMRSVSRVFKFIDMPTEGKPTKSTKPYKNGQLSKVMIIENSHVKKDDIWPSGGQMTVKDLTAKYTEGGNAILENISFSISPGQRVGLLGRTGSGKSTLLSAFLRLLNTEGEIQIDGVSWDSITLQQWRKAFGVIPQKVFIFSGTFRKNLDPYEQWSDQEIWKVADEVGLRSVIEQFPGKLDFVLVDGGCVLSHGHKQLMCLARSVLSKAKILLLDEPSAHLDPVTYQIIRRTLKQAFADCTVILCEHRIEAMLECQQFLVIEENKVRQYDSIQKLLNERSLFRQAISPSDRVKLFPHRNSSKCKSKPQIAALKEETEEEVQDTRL
T1 sequence (P13569 with tags, fused parts or gaps DEL508-508): as above

Row | Compound | EC50 (F508del in NIH 3T3 cells; read-out: 3T3 EC50) [µM] | Emax (F508del in NIH 3T3 cells) [%] | EC50 [1] [µM] | Ent. A Max Activity (%) [1] | other results
1 | Cc1cccc(C)c1-c1cc2nc(n1)NS(=O)(=O)c1cccc(n1)NC(=O)C1CC(CN(C(=O)OC(C)(C)C)C1)O2 (centres unmarked) | – | – | – | – | ring closure, yield after HPLC (from Cc1cccc(C)c1-c1cc(OC2CC(C(=O)Oc3c(F)c(F)c(F)c(F)c3F)CN(C(=O)OC(C)(C)C)C2)nc(NS(=O)(=O)c2cccc(N)n2)n1, amide bond, 14-membered ring, none (thermal, OPfp ester), NMP, 10.1 mM, 140.0 °C, 5.0 h, 5 steps): 1%
2 | Cc1ccccc1-c1cc2nc(n1)NS(=O)(=O)c1cccc(c1)Nc1cccc(c1)O2 | – | – | – | – | ring closure, yield after HPLC (other bond, 13-membered ring, CuI/pyrrole-2-carboxylic acid/K3PO4, DMSO, 65.2 mM, 3 steps): 2%
3 | Cc1cccc(C)c1-c1cc2nc(n1)NS(=O)(=O)c1cccc(c1)NC(=O)[C@@H]1CNC[C@H](C1)O2 [Compound 48] | 1 to 3 | > 60 | – | ++ (++ is 30-60%) | –
4 | Cc1cccc(C)c1-c1cc2nc(n1)NS(=O)(=O)c1cccc(c1)NC(=O)[C@H]1CNC[C@H](C1)O2 [Compound 49] | 1 to 3 | > 60 | – | + (+ is <30%) | –
5 | Cc1cccc(C)c1-c1cc2nc(n1)NS(=O)(=O)c1cccc(c1)NC(=O)[C@@H]1CNC[C@@H](C1)O2 [Compound 50] | – | < 30 | – | + (+ is <30%) | –
6 | Cc1cccc(C)c1-c1cc2nc(n1)NS(=O)(=O)c1cccc(c1)NC(=O)C1CNCC(C1)O2 (centres unmarked) [Compound 51] | 3 to 30 | – | 3 to 30 | ++ (++ is 30-60%) | 3T3 Max Activity (%) (F508del in NIH 3T3 cells): +++ (+++ is >60%)
7 | Cc1cccc(C)c1-c1cc2nc(n1)NS(=O)(=O)c1cccc(c1)NC(=O)C1CNCC(C1)O2 (centres unmarked) [Compound 52] | – | – | 3 to 30 | + (+ is <30%) | 3T3 Max Activity (%) (F508del in NIH 3T3 cells): + (+ is <30%)
8 | Cc1ccccc1-c1cc2nc(n1)NS(=O)(=O)c1cccc(c1)NC(=O)c1ccc(cc1)O2 [Compound 63, 5-(o-Tolyl)-9,9-dioxo-2-oxa-9λ^6-thia-6,8,15,23-tetraazatetracyclo[15.2.2.13,7.110,14]tricosa-1(19),3,5,7(23),10(22),11,13,17,20-nonaen-16-one] | – | – | – | – | ring closure, yield after HPLC (amide bond, 15-membered ring, HATU/DIEA, DMF, 3 steps): 1%; EC50 (F508del in NIH 3T3 cells; 3T3 EC50 (μM)): 1 to 3 µM
9 | Cc1cccc(C)c1-c1cc2nc(c1)Oc1cccc(c1)C(=O)Nc1cccc(c1)S(=O)(=O)N2 [Compound 76, 5-(2,6-Dimethylphenyl)-9,9-dioxo-2-oxa-9λ^6-thia-8,15,23-triazatetracyclo[15.3.1.13,7.110,14]tricosa-1(21),3(23),4,6,10,12,14(22),17,19-nonaen-16-one] | – | < 30 | – | + (+ is <30%) | –
10 | Cc1cccc(C)c1-c1cc2nc(n1)NS(=O)(=O)c1cccc(c1)NC(=O)Cc1cccc(c1)O2 [Compound 109] | 1 to 3 | > 60 | 3 to 30 | ++ (++ is 30-60%) | –
11 | Cc1ccc2cc1C(=O)Nc1cccc(c1)S(=O)(=O)Nc1nc(cc(-c3c(C)cccc3C)n1)O2 [Compound 111] | < 1 | > 60 | 3 to 30 | ++ (++ is 30-60%) | –
12 | Cc1cccc(C)c1-c1cc2nc(n1)NS(=O)(=O)c1cccc(c1)NC(=O)c1ccc(Cl)c(c1)O2 [Compound 117] | < 1 | > 60 | 1 to 3 | +++ (+++ is >60%) | –
13 | Cc1cccc(C)c1-c1cc2nc(n1)NS(=O)(=O)c1cccc(c1)NC(=O)c1cc(Cl)cc(c1)O2 [Compound 118] | < 1 | > 60 | 1 to 3 | +++ (+++ is >60%) | –
14 | Cc1cccc(C)c1-c1cc2nc(n1)NS(=O)(=O)c1cccc(c1)NC(=O)C1CC(CN(C(=O)OC(C)(C)C)C1)O2 (centres unmarked) [Compound 123] | < 1 | > 60 | < 1 | ++ (++ is 30-60%) | –
15 | Cc1cccc(C)c1-c1cc2nc(n1)NS(=O)(=O)c1cccc(c1)NC(=O)C1CC(CN(C(=O)OC(C)(C)C)C1)O2 (centres unmarked) [Compound 124] | 1 to 3 | – | 3 to 30 | ++ (++ is 30-60%) | 3T3 Max Activity (%) (F508del in NIH 3T3 cells): +++ (+++ is >60%)

The next lines start with results.

Row | EC50 (F508del in NIH 3T3 cells; read-out: 3T3 EC50) [µM] | Emax (F508del in NIH 3T3 cells) [%] | EC50 [1] [µM] | Compound | Ent. A Max Activity (%) [1] | other results
16 | < 1 | > 60 | – | Cc1cccc(C)c1-c1cc2nc(n1)NS(=O)(=O)c1cccc(c1)NC(=O)C1CCCC(C1)O2 (mixture of isomers) [Compound 67, 5-(2,6-Dimethylphenyl)-9,9-dioxo-2-oxa-9λ^6-thia-6,8,15,23-tetraazatetracyclo[15.3.1.13,7.110,14]tricosa-3,5,7(23),10(22),11,13-hexaen-16-one] | – | ring closure, yield after HPLC (amide bond, 14-membered ring, HATU/DIEA, DMF, 100.0 mM, 3 steps): 20%
17 | < 1 | > 60 | 3 to 30 | Cc1cccc(C)c1-c1cc2nc(n1)NS(=O)(=O)c1cccc(c1)NC(=O)c1cccc(c1)O2 [Compound 53, 5-(2,6-Dimethylphenyl)-9,9-dioxo-2-oxa-9λ^6-thia-6,8,15,23-tetraazatetracyclo[15.3.1.13,7.110,14]tricosa-1(20),3,5,7(23),10(22),11,13,17(21),18-nonaen-16-one] | +++ (+++ is >60%) | –
18 | < 1 | > 60 | – | Cc1ccccc1-c1cc2nc(n1)NS(=O)(=O)c1cccc(c1)NC(=O)c1cccc(c1)O2 [Compound 54, 5-(o-Tolyl)-9,9-dioxo-2-oxa-9λ^6-thia-6,8,15,23-tetraazatetracyclo[15.3.1.13,7.110,14]tricosa-1(20),3,5,7(23),10(22),11,13,17(21),18-nonaen-16-one] | – | ring closure, yield after HPLC (from Cc1ccccc1-c1cc(Oc2cccc(C(=O)O)c2)nc(NS(=O)(=O)c2cccc(N)c2)n1, amide bond, 14-membered ring, HATU/DIEA, DMF, 81.2 mM, 0.33 h): 45%
19 | < 1 | > 60 | < 1 | Cc1ccc2cc1Oc1cc(-c3c(C)cccc3C)nc(n1)NS(=O)(=O)c1cccc(c1)NC2=O [Compound 57, 5-(2,6-Dimethylphenyl)-20-methyl-2-oxa-9λ^6-thia-6,8,15,23-tetraazatetracyclo[15.3.1.13,7.110,14]tricosa-1(21),3(23),4,6,10,12,14(22),17,19-nonaene-9,9,16-trione] | ++ (++ is 30-60%) | –
20 | < 1 | > 60 | 1 to 3 | O=C1Nc2cccc(c2)S(=O)(=O)Nc2nc(cc(-c3cccc4ccccc34)n2)Oc2cccc1c2 [Compound 58, 5-(1-Naphthyl)-9,9-dioxo-2-oxa-9λ^6-thia-6,8,15,23-tetraazatetracyclo[15.3.1.13,7.110,14]tricosa-1(20),3,5,7(23),10(22),11,13,17(21),18-nonaen-16-one] | ++ (++ is 30-60%) | –
21 | < 1 | – | – | Cc1ccccc1-c1cc2nc(n1)NS(=O)(=O)c1cccc(c1)NCc1cccc(c1)O2 [Compound 62, 5-(o-Tolyl)-2-oxa-9λ^6-thia-6,8,15,23-tetraazatetracyclo[15.3.1.13,7.110,14]tricosa-1(20),3,5,7(23),10(22),11,13,17(21),18-nonaene 9,9-dioxide] | – | ring closure, yield after HPLC (amine bond, 14-membered ring, NaBH(OAc)3/TFA, AcOH, 3 steps): 1%
22 | < 1 | > 60 | 3 to 30 | CC(C)c1ccccc1-c1cc2nc(n1)NS(=O)(=O)c1cccc(c1)NC(=O)c1cccc(c1)O2 [Compound 81] | ++ (++ is 30-60%) | –
23 | < 1 | > 60 | 3 to 30 | Cc1cccc(C)c1-c1cc2nc(n1)NS(=O)(=O)c1cccc(c1)NC(=O)CCc1cccc(c1)O2 [Compound 108] | +++ (+++ is >60%) | –
24 | < 1 | > 60 | 1 to 3 | Cc1cc2cc(c1)C(=O)Nc1cccc(c1)S(=O)(=O)Nc1nc(cc(-c3c(C)cccc3C)n1)O2 [Compound 110] | ++ (++ is 30-60%) | –
